Laboratory results from ChEMBL document CHEMBL1944514, “Fluorescence detection of single nucleotide polymorphisms using nucleic acid probe containing tricyclic base-linked acyclonucleoside” (Bioorg Med Chem Lett, 2012).
Active and inactive are the calls of the source. The calls are words filed in the database; no cut-off is given here.

Columns and labels:
Assay type in all cases: nucleic-acid assay
Nucleic Acid [1] = assay: Binding affinity to 3'-r(CUUCCAGUUUCAUAGAGA)-5' RNA assessed as fluorescence quenching by spectrophotometry
Nucleic Acid [2] = assay: Binding affinity to 3'-r(CUUCCAGUUCCAUAGAGA)-5' RNA assessed as fluorescence quenching by spectrophotometry
Nucleic Acid [3] = assay: Binding affinity to 3'-r(CUUCCAGUUACAUAGAGA)-5' RNA assessed as fluorescence quenching by spectrophotometry
Nucleic Acid [4] = assay: Binding affinity to 3'-r(CUUCCAGUUGCAUAGAGA)-5' RNA assessed as fluorescence quenching by spectrophotometry

| Activity (Nucleic Acid [1]) | Activity (Nucleic Acid [2]) | Activity (Nucleic Acid [3]) | Activity (Nucleic Acid [4]) | Structure (SMILES) |
| --- | --- | --- | --- | --- |
| Active | Active | Active | Active | Cc1cn([C@H]2C[C@H](OP(=O)(O)OC[C@H]3O[C@@H](n4ccc(N)nc4=O)C[C@@H]3OP(=O)(O)OC[C@H]3O[C@@H](n4cnc5c(N)ncnc54)C[C@@H]3OP(=O)(O)OC[C@H]3O[C@@H](n4cnc5c(N)ncnc54)C[C@@H]3OP(=O)(O)OC[C@H]3O[C@@H](n4ccc(N)nc4=O)C[C@@H]3OP(=O)(O)OC[C@H](Cn3cnc4cc5c(N)ncnc5nc43)OP(=O)(O)OC[C@H]3O[C@@H](n4cnc5c(=O)[nH]c(N)nc54)C[C@@H]3OP(=O)(O)CC[C@H]3O[C@@H](n4cc(C)c(=O)[nH]c4=O)C[C@@H]3OP(=O)(O)OC[C@H]3O[C@@H](n4cnc5c(N)ncnc54)C[C@@H]3OP(=O)(O)OC[C@H]3O[C@@H](n4cc(C)c(=O)[nH]c4=O)C[C@@H]3OP(=O)(O)OC[C@H]3O[C@@H](n4ccc(N)nc4=O)C[C@@H]3OP(=O)(O)OC[C@H]3O[C@@H](n4cc(C)c(=O)[nH]c4=O)C[C@@H]3OP(=O)(O)OC[C@H]3O[C@@H](n4ccc(N)nc4=O)C[C@@H]3OP(=O)(O)OC[C@H]3O[C@@H](n4cc(C)c(=O)[nH]c4=O)C[C@@H]3O)[C@@H](COP(=O)(O)O[C@H]3C[C@H](n4cnc5c(=O)[nH]c(N)nc54)O[C@@H]3COP(=O)(O)O[C@H]3C[C@H](n4cnc5c(=O)[nH]c(N)nc54)O[C@@H]3COP(=O)(O)O[C@H]3C[C@H](n4cnc5c(N)ncnc54)O[C@@H]3COP(=O)(O)O[C@H]3C[C@H](n4cnc5c(N)ncnc54)O[C@@H]3COP(=O)(O)O[C@H]3C[C@H](n4cnc5c(=O)[nH]c(N)nc54)O[C@@H]3CO)O2)c(=O)nc1N |
| inactive | Active | Active | Active | Cc1cn([C@H]2C[C@H](OP(=O)(O)OC[C@H]3O[C@@H](n4ccc(N)nc4=O)C[C@@H]3OP(=O)(O)OC[C@H]3O[C@@H](n4cnc5c(N)ncnc54)C[C@@H]3OP(=O)(O)OC[C@H]3O[C@@H](n4cnc5c(N)ncnc54)C[C@@H]3OP(=O)(O)OC[C@H]3O[C@@H](n4cnc5c(N)ncnc54)C[C@@H]3OP(=O)(O)OC[C@H](Cn3cnc4cc5c(N)ncnc5nc43)OP(=O)(O)OC[C@H]3O[C@@H](n4cnc5c(=O)[nH]c(N)nc54)C[C@@H]3OP(=O)(O)CC[C@H]3O[C@@H](n4cc(C)c(=O)[nH]c4=O)C[C@@H]3OP(=O)(O)OC[C@H]3O[C@@H](n4cnc5c(N)ncnc54)C[C@@H]3OP(=O)(O)OC[C@H]3O[C@@H](n4cc(C)c(=O)[nH]c4=O)C[C@@H]3OP(=O)(O)OC[C@H]3O[C@@H](n4ccc(N)nc4=O)C[C@@H]3OP(=O)(O)OC[C@H]3O[C@@H](n4cc(C)c(=O)[nH]c4=O)C[C@@H]3OP(=O)(O)OC[C@H]3O[C@@H](n4ccc(N)nc4=O)C[C@@H]3OP(=O)(O)OC[C@H]3O[C@@H](n4cc(C)c(=O)[nH]c4=O)C[C@@H]3O)[C@@H](COP(=O)(O)O[C@H]3C[C@H](n4cnc5c(=O)[nH]c(N)nc54)O[C@@H]3COP(=O)(O)O[C@H]3C[C@H](n4cnc5c(=O)[nH]c(N)nc54)O[C@@H]3COP(=O)(O)O[C@H]3C[C@H](n4cnc5c(N)ncnc54)O[C@@H]3COP(=O)(O)O[C@H]3C[C@H](n4cnc5c(N)ncnc54)O[C@@H]3COP(=O)(O)O[C@H]3C[C@H](n4cnc5c(=O)[nH]c(N)nc54)O[C@@H]3CO)O2)c(=O)nc1N |
| Active | inactive | Active | Active | Cc1cn([C@H]2C[C@H](OP(=O)(O)OC[C@H]3O[C@@H](n4ccc(N)nc4=O)C[C@@H]3OP(=O)(O)OC[C@H]3O[C@@H](n4cnc5c(N)ncnc54)C[C@@H]3OP(=O)(O)OC[C@H]3O[C@@H](n4cnc5c(N)ncnc54)C[C@@H]3OP(=O)(O)OC[C@H](Cn3cnc4cc5c(N)ncnc5nc43)OP(=O)(O)OC[C@H]3O[C@@H](n4cnc5c(=O)[nH]c(N)nc54)C[C@@H]3OP(=O)(O)OC[C@H]3O[C@@H](n4cnc5c(=O)[nH]c(N)nc54)C[C@@H]3OP(=O)(O)CC[C@H]3O[C@@H](n4cc(C)c(=O)[nH]c4=O)C[C@@H]3OP(=O)(O)OC[C@H]3O[C@@H](n4cnc5c(N)ncnc54)C[C@@H]3OP(=O)(O)OC[C@H]3O[C@@H](n4cc(C)c(=O)[nH]c4=O)C[C@@H]3OP(=O)(O)OC[C@H]3O[C@@H](n4ccc(N)nc4=O)C[C@@H]3OP(=O)(O)OC[C@H]3O[C@@H](n4cc(C)c(=O)[nH]c4=O)C[C@@H]3OP(=O)(O)OC[C@H]3O[C@@H](n4ccc(N)nc4=O)C[C@@H]3OP(=O)(O)OC[C@H]3O[C@@H](n4cc(C)c(=O)[nH]c4=O)C[C@@H]3O)[C@@H](COP(=O)(O)O[C@H]3C[C@H](n4cnc5c(=O)[nH]c(N)nc54)O[C@@H]3COP(=O)(O)O[C@H]3C[C@H](n4cnc5c(=O)[nH]c(N)nc54)O[C@@H]3COP(=O)(O)O[C@H]3C[C@H](n4cnc5c(N)ncnc54)O[C@@H]3COP(=O)(O)O[C@H]3C[C@H](n4cnc5c(N)ncnc54)O[C@@H]3COP(=O)(O)O[C@H]3C[C@H](n4cnc5c(=O)[nH]c(N)nc54)O[C@@H]3CO)O2)c(=O)nc1N |
| Active | Active | inactive | inactive | Cc1cn([C@H]2C[C@H](OP(=O)(O)OC[C@H]3O[C@@H](n4ccc(N)nc4=O)C[C@@H]3OP(=O)(O)OC[C@H]3O[C@@H](n4cnc5c(N)ncnc54)C[C@@H]3OP(=O)(O)OC[C@H]3O[C@@H](n4cnc5c(N)ncnc54)C[C@@H]3OP(=O)(O)OC[C@H](Cn3cnc4cc5c(N)ncnc5nc43)OP(=O)(O)OC[C@H]3O[C@@H](n4cc(C)c(=O)[nH]c4=O)C[C@@H]3OP(=O)(O)OC[C@H]3O[C@@H](n4cnc5c(=O)[nH]c(N)nc54)C[C@@H]3OP(=O)(O)CC[C@H]3O[C@@H](n4cc(C)c(=O)[nH]c4=O)C[C@@H]3OP(=O)(O)OC[C@H]3O[C@@H](n4cnc5c(N)ncnc54)C[C@@H]3OP(=O)(O)OC[C@H]3O[C@@H](n4cc(C)c(=O)[nH]c4=O)C[C@@H]3OP(=O)(O)OC[C@H]3O[C@@H](n4ccc(N)nc4=O)C[C@@H]3OP(=O)(O)OC[C@H]3O[C@@H](n4cc(C)c(=O)[nH]c4=O)C[C@@H]3OP(=O)(O)OC[C@H]3O[C@@H](n4ccc(N)nc4=O)C[C@@H]3OP(=O)(O)OC[C@H]3O[C@@H](n4cc(C)c(=O)[nH]c4=O)C[C@@H]3O)[C@@H](COP(=O)(O)O[C@H]3C[C@H](n4cnc5c(=O)[nH]c(N)nc54)O[C@@H]3COP(=O)(O)O[C@H]3C[C@H](n4cnc5c(=O)[nH]c(N)nc54)O[C@@H]3COP(=O)(O)O[C@H]3C[C@H](n4cnc5c(N)ncnc54)O[C@@H]3COP(=O)(O)O[C@H]3C[C@H](n4cnc5c(N)ncnc54)O[C@@H]3COP(=O)(O)O[C@H]3C[C@H](n4cnc5c(=O)[nH]c(N)nc54)O[C@@H]3CO)O2)c(=O)nc1N |
| Active | Active | inactive | Active | Cc1cn([C@H]2C[C@H](OP(=O)(O)OC[C@H]3O[C@@H](n4ccc(N)nc4=O)C[C@@H]3OP(=O)(O)OC[C@H]3O[C@@H](n4cnc5c(N)ncnc54)C[C@@H]3OP(=O)(O)OC[C@H]3O[C@@H](n4cnc5c(N)ncnc54)C[C@@H]3OP(=O)(O)OC[C@H]3O[C@@H](n4cc(C)c(=O)[nH]c4=O)C[C@@H]3OP(=O)(O)OC[C@H](Cn3cnc4cc5c(N)ncnc5nc43)OP(=O)(O)OC[C@H]3O[C@@H](n4cnc5c(=O)[nH]c(N)nc54)C[C@@H]3OP(=O)(O)CC[C@H]3O[C@@H](n4cc(C)c(=O)[nH]c4=O)C[C@@H]3OP(=O)(O)OC[C@H]3O[C@@H](n4cnc5c(N)ncnc54)C[C@@H]3OP(=O)(O)OC[C@H]3O[C@@H](n4cc(C)c(=O)[nH]c4=O)C[C@@H]3OP(=O)(O)OC[C@H]3O[C@@H](n4ccc(N)nc4=O)C[C@@H]3OP(=O)(O)OC[C@H]3O[C@@H](n4cc(C)c(=O)[nH]c4=O)C[C@@H]3OP(=O)(O)OC[C@H]3O[C@@H](n4ccc(N)nc4=O)C[C@@H]3OP(=O)(O)OC[C@H]3O[C@@H](n4cc(C)c(=O)[nH]c4=O)C[C@@H]3O)[C@@H](COP(=O)(O)O[C@H]3C[C@H](n4cnc5c(=O)[nH]c(N)nc54)O[C@@H]3COP(=O)(O)O[C@H]3C[C@H](n4cnc5c(=O)[nH]c(N)nc54)O[C@@H]3COP(=O)(O)O[C@H]3C[C@H](n4cnc5c(N)ncnc54)O[C@@H]3COP(=O)(O)O[C@H]3C[C@H](n4cnc5c(N)ncnc54)O[C@@H]3COP(=O)(O)O[C@H]3C[C@H](n4cnc5c(=O)[nH]c(N)nc54)O[C@@H]3CO)O2)c(=O)nc1N |
| Active | Active | Active | inactive | Cc1cn([C@H]2C[C@H](OP(=O)(O)OC[C@H]3O[C@@H](n4ccc(N)nc4=O)C[C@@H]3OP(=O)(O)OC[C@H]3O[C@@H](n4cnc5c(N)ncnc54)C[C@@H]3OP(=O)(O)OC[C@H]3O[C@@H](n4cnc5c(N)ncnc54)C[C@@H]3OP(=O)(O)OC[C@H](Cn3cnc4cc5c(N)ncnc5nc43)OP(=O)(O)OC[C@H]3O[C@@H](n4ccc(N)nc4=O)C[C@@H]3OP(=O)(O)OC[C@H]3O[C@@H](n4cnc5c(=O)[nH]c(N)nc54)C[C@@H]3OP(=O)(O)CC[C@H]3O[C@@H](n4cc(C)c(=O)[nH]c4=O)C[C@@H]3OP(=O)(O)OC[C@H]3O[C@@H](n4cnc5c(N)ncnc54)C[C@@H]3OP(=O)(O)OC[C@H]3O[C@@H](n4cc(C)c(=O)[nH]c4=O)C[C@@H]3OP(=O)(O)OC[C@H]3O[C@@H](n4ccc(N)nc4=O)C[C@@H]3OP(=O)(O)OC[C@H]3O[C@@H](n4cc(C)c(=O)[nH]c4=O)C[C@@H]3OP(=O)(O)OC[C@H]3O[C@@H](n4ccc(N)nc4=O)C[C@@H]3OP(=O)(O)OC[C@H]3O[C@@H](n4cc(C)c(=O)[nH]c4=O)C[C@@H]3O)[C@@H](COP(=O)(O)O[C@H]3C[C@H](n4cnc5c(=O)[nH]c(N)nc54)O[C@@H]3COP(=O)(O)O[C@H]3C[C@H](n4cnc5c(=O)[nH]c(N)nc54)O[C@@H]3COP(=O)(O)O[C@H]3C[C@H](n4cnc5c(N)ncnc54)O[C@@H]3COP(=O)(O)O[C@H]3C[C@H](n4cnc5c(N)ncnc54)O[C@@H]3COP(=O)(O)O[C@H]3C[C@H](n4cnc5c(=O)[nH]c(N)nc54)O[C@@H]3CO)O2)c(=O)nc1N |
